From patent publication US20250313604A1, “PEPTIDE PHARMACEUTICALS FOR INSULIN RESISTANCE” (Mederis Diabetes LLC, priority 2014, published 2025)
Non-standard residues stand in square brackets, D forms with d. Residues, ends and D or L forms follow the SMILES beside them. *: point of attachment. GlcA(β-D,1-O-dodecyl) = CCCCCCCCCCCCO[C@@H]1O[C@H](C(=O)*)[C@@H](O)[C@H](O)[C@H]1O; αMeF = C[C@](N)(Cc1ccccc1)C(=O)O; Aib = CC(C)(N)C(=O)O

What was measured:
glucagon R = target: T1, glucagon R (Homo sapiens, UniProt P47871); assay: Cerep cellular assay, stimulation of cAMP levels, glucagon (human, cloned into CHO cells); assay type: cell-based
T1 construct: host or cells: CHO cells
Description: Compounds were weighed precisely in an amount of approximately 1 mg and assayed in standard cellular assays (Cerep SA). The readout is the amount of cAMP generated in the cells treated with the test compounds, in either agonist or antagonist mode. […] The assays are described in Chicchi, G. G., et al. (1997) J Biol Chem 272:7765-7769 and Runge, S., et al. (2003) Br J Pharmacol 138:787-794.

db/db mice = assay: In vivo assay in db/db mice (blood glucose, body weight, food consumption)
[1] = Plasma protease stability; assay type: in vitro ADME; conditions: incubation at 30 degC, t=0-8 hrs, LC-MS (FIG. 8)
Description: Standard and QC Sample Preparation: i. […] Make standard working solutions in 50% CH3CN with the stock solution. […] Spiked 10 μL of the working solutions into 90 μL blank plasma and vortex them, iv. […] Transfer the supernatant into an HPLC injection plate for loading on the HPLC column, vi.

T1 sequence (P47871 26-477): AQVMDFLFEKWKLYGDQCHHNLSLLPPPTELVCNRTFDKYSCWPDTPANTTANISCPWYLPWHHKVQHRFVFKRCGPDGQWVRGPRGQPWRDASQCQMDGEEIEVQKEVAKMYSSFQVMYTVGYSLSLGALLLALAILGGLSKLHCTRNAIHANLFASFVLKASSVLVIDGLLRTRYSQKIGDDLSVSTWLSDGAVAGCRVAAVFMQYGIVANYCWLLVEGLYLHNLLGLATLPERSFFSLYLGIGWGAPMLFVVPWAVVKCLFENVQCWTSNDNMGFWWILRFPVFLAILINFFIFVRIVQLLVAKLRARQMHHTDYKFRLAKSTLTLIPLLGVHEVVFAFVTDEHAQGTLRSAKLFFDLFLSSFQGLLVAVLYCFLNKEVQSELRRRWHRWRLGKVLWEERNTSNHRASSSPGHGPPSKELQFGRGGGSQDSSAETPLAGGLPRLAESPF

amount of intact compound in the human plasma versus time [1]	Structure (SMILES)	GLCR cellular response (glucagon R)	db/db mice - Mean Blood Glucose (db/db mice; 250 nmole/kg s.c., 0 hr)	db/db mice - Mean Blood Glucose (db/db mice; 250 nmole/kg s.c., 10 hr)	db/db mice - Mean Blood Glucose (db/db mice; 250 nmole/kg s.c., 24 hr)	db/db mice - Mean Blood Glucose (db/db mice; 250 nmole/kg s.c., 48 hr)	db/db mice - Mean Blood Glucose (db/db mice; 50 nmole/kg s.c., 0 hr)	db/db mice - Mean Blood Glucose (db/db mice; 50 nmole/kg s.c., 10 hr)	db/db mice - Mean Blood Glucose (db/db mice; 50 nmole/kg s.c., 24 hr)	db/db mice - Mean Blood Glucose (db/db mice; 50 nmole/kg s.c., 48 hr)
	CCCCCCCCCCCCO[C@@H]1O[C@H](C(=O)NCCCC[C@H](NC(=O)C(C)(C)NC(=O)[C@H](CC(=O)O)NC(=O)[C@H](CC(C)C)NC(=O)[C@H](Cc2ccc(O)cc2)NC(=O)[C@H](CCCCN)NC(=O)[C@H](CO)NC(=O)[C@H](Cc2ccc(O)cc2)NC(=O)[C@H](CC(=O)O)NC(=O)[C@H](CO)NC(=O)[C@@H](NC(=O)[C@](C)(Cc2ccccc2)NC(=O)[C@@H](NC(=O)CNC(=O)[C@H](CCC(N)=O)NC(=O)C(C)(C)NC(=O)[C@@H](N)Cc2c[nH]cn2)[C@@H](C)O)[C@@H](C)O)C(N)=O)[C@@H](O)[C@H](O)[C@H]1O [EU-A391] (H-H[Aib]QGT[αMeF]TSDYSKYLD[Aib]K(GlcA(β-D,1-O-dodecyl))-NH2; N-terminus assumed)	does not change								
essentially no change over 8 hrs	CCCCCCCCCCCCO[C@@H]1O[C@H](C(=O)NCCCC[C@H](NC(=O)[C@@H](NC(=O)[C@H](Cc2ccccc2)NC(=O)[C@H](CCC(=O)O)NC(=O)[C@@H]2CCCCNC(=O)CC[C@H](NC(=O)[C@H](CC(=O)O)NC(=O)[C@H](CC(C)C)NC(=O)[C@H](Cc3ccc(O)cc3)NC(=O)[C@H](CCCCN)NC(=O)[C@H](CO)NC(=O)[C@H](Cc3ccc(O)cc3)NC(=O)[C@H](CC(=O)O)NC(=O)[C@H](CO)NC(=O)[C@@H](NC(=O)[C@H](Cc3ccccc3)NC(=O)[C@@H](NC(=O)CNC(=O)[C@H](CCC(N)=O)NC(=O)C(C)(C)NC(=O)[C@@H](N)Cc3c[nH]cn3)[C@@H](C)O)[C@@H](C)O)C(=O)N[C@@H](CCC(N)=O)C(=O)N[C@@H](C)C(=O)N[C@@H](C)C(=O)N2)[C@@H](C)CC)C(=O)N[C@@H](Cc2c[nH]c3ccccc23)C(=O)N[C@@H](CC(C)C)C(=O)N[C@@H](CC(C)C)C(=O)N[C@@H](CCC(N)=O)C(=O)N[C@H](C(N)=O)[C@@H](C)O)[C@@H](O)[C@H](O)[C@H]1O [EU-A993, His1-Aib2-Gln3-Gly4-Thr5-Phe6-Thr7-Ser8-Asp9-Tyr10-Ser11-Lys12-Tyr13-Leu14-Asp15-Glu*16-Gln17-Ala18-Ala19-Lys*20-Glu21-Phe22-Ile23-Lys(N-omega(1-dodecylbeta-D-glucuronyl))24-Trp25-Leu26-Leu27-Gln28-Thr29-NH2]		503 mg/dL	305 mg/dL	324 mg/dL	426 mg/dL				
essentially no change over 8 hrs	CCCCCCCCCCCCO[C@@H]1O[C@H](CO[C@H]2O[C@H](C(=O)NCCCC[C@H](NC(=O)[C@@H](NC(=O)[C@H](Cc3ccccc3)NC(=O)[C@H](CCC(=O)O)NC(=O)[C@@H]3CCCCNC(=O)CC[C@H](NC(=O)[C@H](CC(=O)O)NC(=O)[C@H](CC(C)C)NC(=O)[C@H](Cc4ccc(O)cc4)NC(=O)[C@H](CCCCN)NC(=O)[C@H](CO)NC(=O)[C@H](Cc4ccc(O)cc4)NC(=O)[C@H](CC(=O)O)NC(=O)[C@H](CO)NC(=O)[C@@H](NC(=O)[C@H](Cc4ccccc4)NC(=O)[C@@H](NC(=O)CNC(=O)[C@H](CCC(N)=O)NC(=O)C(C)(C)NC(=O)[C@@H](N)Cc4c[nH]cn4)[C@@H](C)O)[C@@H](C)O)C(=O)N[C@@H](CCC(N)=O)C(=O)N[C@@H](C)C(=O)N[C@@H](C)C(=O)N3)[C@@H](C)CC)C(=O)N[C@@H](Cc3c[nH]c4ccccc34)C(=O)N[C@@H](CC(C)C)C(=O)N[C@@H](CC(C)C)C(=O)N[C@@H](CCC(N)=O)C(=O)N[C@H](C(N)=O)[C@@H](C)O)[C@H](O)[C@H](O)[C@H]2O)[C@@H](O)[C@H](O)[C@H]1O [EU-A1023, His1-Aib2-Gln3-Gly4-Thr5-Phe6-Thr7-Ser8-Asp9-Tyr10-Ser11-Lys12-Tyr13-Leu14-Asp15-Glu*16-Gln17 Ala18-Ala19-Lys*20-Glu21-Phe22-Ile23-Lys (N-omega (1-dodecyl beta-D-melibiouronyl)) 24-Trp25-Leu26-Leu27-Gln28-Thr29-NH2]		508 mg/dL	264 mg/dL	194 mg/dL	375 mg/dL	507 mg/dL	310 mg/dL	355 mg/dL	375 mg/dL
